Species on record: Rattus norvegicus
Assay: Open TG-GATES - Regimen: Single
Format: toxicity, organism-based, Sprague-Dawley
Design: regimen Single, gender Male, age 6 weeks
Settings: in vivo, iv, route intravenous injection; for KIDNEY_L / KIDNEY_R / KIDNEY_TOTAL: tissue Kidney; for LIVER: tissue Liver
[1] = 0 mg/kg, 24 h, tissue Blood, dose level Control
[2] = 0 mg/kg, 24 h, dose level Control
[3] = 0 mg/kg, 24 h, tissue Plasma, dose level Control
[4] = 1 mg/kg, 3 h, tissue Blood, dose level Low
[5] = 1 mg/kg, 3 h, tissue Plasma, dose level Low

## C[C@@H]1[C@H](O)[C@@H](C)/C=C/C=C/C=C/C=C/C=C/C=C/C=C/[C@H](O[C@@H]2O[C@H](C)[C@@H](O)[C@H](N)[C@@H]2O)C[C@@H]2O[C@](O)(C[C@@H](O)C[C@@H](O)[C@H](O)CC[C@@H](O)C[C@@H](O)CC(=O)O[C@H]1C)C[C@H](O)[C@H]2C(=O)O [AMPHOTERICIN B]
[1]
  MCV: 62.4 fL
  Mono: 2.2%
  Neu: 17%
  PT: 12.3 s
  Plat: 145.5 x10_4/uL
  RBC: 621.8 x10_4/ul
  Ret: 7.1%
  WBC: 93.8 x10_2/uL
[2]
  KIDNEY_L: 1 g
  KIDNEY_R: 1 g
  KIDNEY_TOTAL: 1.9 g
  LIVER: 10.4 g
[3]
  A/G: 0.9
  ALP: 1818.6 IU/L
  ALT: 37.6 IU/L
  AST: 66.8 IU/L
  BUN: 15.2 mg/dL
  CRE: 0.2 mg/dL
  Ca: 11 mg/dL
  Cl: 105.6 meq/L
  DBIL: 0.02 mg/dL
  GLC: 169 mg/dL
  IP: 7.7 mg/dL
  K: 3.8 meq/L
  LDH: 53.2 IU/L
  Na: 143.4 meq/L
  PL: 133.4 mg/dL
  RALB: 2.6 g/dL
  TBIL: 0.054 mg/dL
  TC: 74.2 mg/dL
  TG: 96.8 mg/dL
  TP: 5.8 g/dL
  gamma-GTP: 1.6 IU/L
1 mg/kg, 3 h, dose level Low
  TERMINAL_BW: 214.2 g
  KIDNEY_L: 1 g
  KIDNEY_R: 1 g
  KIDNEY_TOTAL: 1.9 g
  LIVER: 9.8 g
[4]
  APTT: 16.8 s
  Bas: 0%
  Eos: 0.6%
  Fbg: 257 mg/dL
  Hb: 13.6 g/dL
  Ht: 39.9%
  Lym: 74.6%
  MCH: 21.2 pg
  MCHC: 34.1%
  MCV: 62 fL
  Mono: 3.2%
  Neu: 20.6%
  PT: 13 s
  Plat: 139.1 x10_4/uL
  RBC: 644.6 x10_4/ul
  Ret: 7.7%
  WBC: 97.1 x10_2/uL
[5]
  A/G: 0.9
  ALP: 1691 IU/L
  ALT: 40 IU/L
  AST: 85.4 IU/L
  BUN: 18.8 mg/dL
  CRE: 0.2 mg/dL
  Ca: 10.9 mg/dL
  Cl: 106.6 meq/L
  DBIL: 0.018 mg/dL
  GLC: 173.4 mg/dL
  IP: 8.6 mg/dL
  K: 3.9 meq/L
  LDH: 58.8 IU/L
  Na: 143.2 meq/L
  PL: 129.4 mg/dL
